Values quoted from earlier work as cited in PMC12053642, “Oral PRI-002 treatment in patients with MCI or mild AD: a randomized, double-blind phase 1b trial” (Nature Communications, 2025).
Square brackets hold non-standard residues; d marks the D form. Peptide text beside a SMILES is read from it.

Conditions: Day 1 of the MAD study; dose 320 mg/person; cited from earlier work
Description: On the two test days (Day 1 and Day 28), plasma levels were highly variable (Fig. 1). Coefficient of variations (CVs) were clearly above 100% at 0.5 h after the first treatment and at the pre-treatment time of Day 28 (Supplementary Table 8). […] The high variability is due to a non-Gaussian data distribution. Mean maximum plasma levels on Day 1 (Day 28) of 4.46 ± 3.71 ng/ml (12.6 ...

CC(C)C[C@@H](NC(=O)[C@H](NC(=O)[C@H]1CCCN1)[C@H](C)O)C(=O)N[C@H](Cc1c[nH]cn1)C(=O)N[C@@H](C(=O)N[C@H](Cc1c[nH]cn1)C(=O)N[C@H](CC(N)=O)C(=O)N[C@H](CCCNC(=N)N)C(=O)N[C@H](CCCNC(=N)N)C(=O)N[C@H](CCCNC(=N)N)C(=O)N[C@H](CCCNC(=N)N)C(=O)N[C@H](CCCNC(=N)N)C(N)=O)[C@H](C)O [PRI-002] (H-[dP][dT][dL][dH][dT][dH][dN][dR][dR][dR][dR][dR]-NH2; N-terminus and C-terminus assumed)
AUC0-4 hour: 33.7 ng·h/mL | partial AUC up to 4 h as percentage of total AUC: 44.2%
